From patent US12162840B2, “Herbicidal compositions” (SYNGENTA PARTICIPATIONS AG, priority 2018, dated 2024)

Test system: cool season plant species
Assay: B2 Post-emergence efficacy Test 2, cool season plant species
Format: in vivo
Conditions: 15 days after application, 0=no damage, 100=total kill
Protocol: Seeds of a variety of test species (see Table B1) were sown in standard soil in pots. After cultivation for 12 days (post-emergence) under controlled conditions in a glasshouse (at 24/18° C. or 20/16° C., at day/night; 16 hours light; 65% humidity), the plants were sprayed with an aqueous spray solution derived from the formulation of the technical active ingredient dissolved in IF50 (see Table B2 for composition) and adjuvant (Genapol XO80) was added to the spray solution at a rate of 0.2% v/v. [table] [table] After application, the test plants were grown in a glasshouse under controlled conditions (as above) and watered twice daily. Herbicidal activity was evaluated 15 days after application on a 0-100 scale. The results, where 0=no damage to test plant and 100=total kill of test plant are shown below in Tables 6 to 9.

For `Cc1nn(C)c(=O)c(-c2c(F)ccc(Cl)c2CCc2ccc(F)cc2)c1OC(=O)C(C)C` [Compound 1.125], the “Herbicidal activity (0-100 scale) ALOMY” value (15 g/Ha) was 10, the “Herbicidal activity (0-100 scale) ALOMY” value (30 g/Ha) was 10 and the “Herbicidal activity (0-100 scale) ALOMY” value (60 g/Ha) was 30. For the same molecule, the “Herbicidal activity (0-100 scale) ALOMY” value (125 g/Ha) was 30, the “Herbicidal activity (0-100 scale) ALOMY” value (250 g/Ha) was 60 and the “Herbicidal activity (0-100 scale) ALOMY” value (500 g/Ha) was 40. The “Herbicidal activity (0-100 scale) AVEFA” value (15 g/Ha) was 30, the “Herbicidal activity (0-100 scale) AVEFA” value (30 g/Ha) was 40 and the “Herbicidal activity (0-100 scale) AVEFA” value (60 g/Ha) was 60. The “Herbicidal activity (0-100 scale) AVEFA” value (125 g/Ha) was 70, the “Herbicidal activity (0-100 scale) AVEFA” value (250 g/Ha) was 70 and the “Herbicidal activity (0-100 scale) AVEFA” value (500 g/Ha) was 80. The “Herbicidal activity (0-100 scale) BEAVA” value (15 g/Ha) was 70, the “Herbicidal activity (0-100 scale) BEAVA” value (30 g/Ha) was 60 and the “Herbicidal activity (0-100 scale) BEAVA” value (60 g/Ha) was 60. For the same molecule, the “Herbicidal activity (0-100 scale) BEAVA” value (125 g/Ha) was 70, the “Herbicidal activity (0-100 scale) BEAVA” value (250 g/Ha) was 70 and the “Herbicidal activity (0-100 scale) BEAVA” value (500 g/Ha) was 70. For the same molecule, the “Herbicidal activity (0-100 scale) BROTE” value (15 g/Ha) was 0, the “Herbicidal activity (0-100 scale) BROTE” value (30 g/Ha) was 0 and the “Herbicidal activity (0-100 scale) BROTE” value (60 g/Ha) was 0. The “Herbicidal activity (0-100 scale) BROTE” value (125 g/Ha) was 0, the “Herbicidal activity (0-100 scale) BROTE” value (250 g/Ha) was 10 and the “Herbicidal activity (0-100 scale) BROTE” value (500 g/Ha) was 10. The “Herbicidal activity (0-100 scale) BRSNN” value (15 g/Ha) was 80, the “Herbicidal activity (0-100 scale) BRSNN” value (30 g/Ha) was 80 and the “Herbicidal activity (0-100 scale) BRSNN” value (60 g/Ha) was 80. For the same molecule, the “Herbicidal activity (0-100 scale) BRSNN” value (125 g/Ha) was 90, the “Herbicidal activity (0-100 scale) BRSNN” value (250 g/Ha) was 90 and the “Herbicidal activity (0-100 scale) BRSNN” value (500 g/Ha) was 90. The “Herbicidal activity (0-100 scale) CHEAL” value (15 g/Ha) was 90, the “Herbicidal activity (0-100 scale) CHEAL” value (30 g/Ha) was 90 and the “Herbicidal activity (0-100 scale) CHEAL” value (60 g/Ha) was 90. The “Herbicidal activity (0-100 scale) CHEAL” value (125 g/Ha) was 90, the “Herbicidal activity (0-100 scale) CHEAL” value (250 g/Ha) was 90 and the “Herbicidal activity (0-100 scale) CHEAL” value (500 g/Ha) was 90. The “Herbicidal activity (0-100 scale) GALAP” value (30 g/Ha) was 20, the “Herbicidal activity (0-100 scale) GALAP” value (60 g/Ha) was 20 and the “Herbicidal activity (0-100 scale) GALAP” value (125 g/Ha) was 30. For the same molecule, the “Herbicidal activity (0-100 scale) GALAP” value (250 g/Ha) was 40, the “Herbicidal activity (0-100 scale) GALAP” value (500 g/Ha) was 70 and the “Herbicidal activity (0-100 scale) HORVW” value (15 g/Ha) was 0. For the same molecule, the “Herbicidal activity (0-100 scale) HORVW” value (30 g/Ha) was 0, the “Herbicidal activity (0-100 scale) HORVW” value (60 g/Ha) was 10 and the “Herbicidal activity (0-100 scale) HORVW” value (125 g/Ha) was 10. The “Herbicidal activity (0-100 scale) HORVW” value (250 g/Ha) was 10, the “Herbicidal activity (0-100 scale) HORVW” value (500 g/Ha) was 10 and the “Herbicidal activity (0-100 scale) KCHSC” value (15 g/Ha) was 0. The “Herbicidal activity (0-100 scale) KCHSC” value (30 g/Ha) was 20, the “Herbicidal activity (0-100 scale) KCHSC” value (60 g/Ha) was 30 and the “Herbicidal activity (0-100 scale) KCHSC” value (125 g/Ha) was 50. For the same molecule, the “Herbicidal activity (0-100 scale) KCHSC” value (250 g/Ha) was 60, the “Herbicidal activity (0-100 scale) KCHSC” value (500 g/Ha) was 70 and the “Herbicidal activity (0-100 scale) LOLPE” value (15 g/Ha) was 40. The “Herbicidal activity (0-100 scale) LOLPE” value (30 g/Ha) was 50, the “Herbicidal activity (0-100 scale) LOLPE” value (60 g/Ha) was 60 and the “Herbicidal activity (0-100 scale) LOLPE” value (125 g/Ha) was 70. For the same molecule, the “Herbicidal activity (0-100 scale) LOLPE” value (250 g/Ha) was 80, the “Herbicidal activity (0-100 scale) LOLPE” value (500 g/Ha) was 90 and the “Herbicidal activity (0-100 scale) POAAN” value (15 g/Ha) was 0. For the same molecule, the “Herbicidal activity (0-100 scale) POAAN” value (30 g/Ha) was 10, the “Herbicidal activity (0-100 scale) POAAN” value (60 g/Ha) was 20 and the “Herbicidal activity (0-100 scale) POAAN” value (125 g/Ha) was 60. The “Herbicidal activity (0-100 scale) POAAN” value (250 g/Ha) was 70, the “Herbicidal activity (0-100 scale) POAAN” value (500 g/Ha) was 60 and the “Herbicidal activity (0-100 scale) POLCO” value (15 g/Ha) was 90. The “Herbicidal activity (0-100 scale) POLCO” value (30 g/Ha) was 90, the “Herbicidal activity (0-100 scale) POLCO” value (60 g/Ha) was 90 and the “Herbicidal activity (0-100 scale) POLCO” value (125 g/Ha) was 90. For the same molecule, the “Herbicidal activity (0-100 scale) POLCO” value (250 g/Ha) was 90, the “Herbicidal activity (0-100 scale) POLCO” value (500 g/Ha) was 90 and the “Herbicidal activity (0-100 scale) SINAR” value (15 g/Ha) was 60. The “Herbicidal activity (0-100 scale) SINAR” value (30 g/Ha) was 60, the “Herbicidal activity (0-100 scale) SINAR” value (60 g/Ha) was 80 and the “Herbicidal activity (0-100 scale) SINAR” value (125 g/Ha) was 90. For the same molecule, the “Herbicidal activity (0-100 scale) SINAR” value (250 g/Ha) was 90, the “Herbicidal activity (0-100 scale) SINAR” value (500 g/Ha) was 90 and the “Herbicidal activity (0-100 scale) STEME” value (15 g/Ha) was 90. The “Herbicidal activity (0-100 scale) STEME” value (30 g/Ha) was 90, the “Herbicidal activity (0-100 scale) STEME” value (60 g/Ha) was 90 and the “Herbicidal activity (0-100 scale) STEME” value (125 g/Ha) was 90. The “Herbicidal activity (0-100 scale) STEME” value (250 g/Ha) was 90, the “Herbicidal activity (0-100 scale) STEME” value (500 g/Ha) was 90 and the “Herbicidal activity (0-100 scale) TRZAW” value (15 g/Ha) was 0. The “Herbicidal activity (0-100 scale) TRZAW” value (30 g/Ha) was 10, the “Herbicidal activity (0-100 scale) TRZAW” value (60 g/Ha) was 10 and the “Herbicidal activity (0-100 scale) TRZAW” value (125 g/Ha) was 20. For the same molecule, the “Herbicidal activity (0-100 scale) TRZAW” value (250 g/Ha) was 30, the “Herbicidal activity (0-100 scale) TRZAW” value (500 g/Ha) was 50 and the “Herbicidal activity (0-100 scale) VERPE” value (15 g/Ha) was 70. The “Herbicidal activity (0-100 scale) VERPE” value (30 g/Ha) was 70, the “Herbicidal activity (0-100 scale) VERPE” value (60 g/Ha) was 70 and the “Herbicidal activity (0-100 scale) VERPE” value (125 g/Ha) was 80. For the same molecule, the “Herbicidal activity (0-100 scale) VERPE” value (250 g/Ha) was 80 and the “Herbicidal activity (0-100 scale) VERPE” value (500 g/Ha) was 90.
